Measured values as given in patent publication US8293909B2, “Compounds for the treatment of hepatitis C” (Bristol-Myers Squibb Company, priority 2008, dated 2012).

Assays:
[1] = system: HCV replicon cells; test: HCV replicon assay (FRET or luciferase readout); assay type: cell-based; details: Hepatitis C virus
Excerpt: FRET Assay Preparation. To perform the HCV FRET screening assay, 96-well cell culture plates were used. The FRET peptide (Anaspec, Inc.) (Taliani et al., Anal. Biochem. 1996, 240, 60-67) contains a fluorescence donor, EDANS, near one end of the peptide and an acceptor, DABCYL, near the other end. The fluorescence of the peptide is quenched by […] resonance energy transfer (RET) between the donor and the acceptor, but as the NS3 protease cleaves the peptide the products are released from RET quenching and the fluorescence of the donor becomes apparent. The assay reagent was made as follows: 5× cell Luciferase cell culture lysis reagent from Promega (#E153A) diluted to 1× with dH2O, NaCl added to 150 mM final, the FRET peptide diluted to 20 μM final from a 2 mM stock.
To prepare plates, HCV replicon cells, with or without a Renilla luciferase reporter gene, were trypsinized and placed into each well of a 96-well plate with titrated test compounds added in columns 3 through 12; columns 1 and 2 contained a control compound (HCV protease inhibitor), and the bottom row contained cells without compound. The plates were then placed in a CO2 incubator at 37° C.
Assays. Subsequent to addition of the test compounds described above (FRET Assay Preparation), at various times the plate was removed and Alamar blue solution (Trek Diagnostics, #00-100) was added per well as a measure of cellular toxicity. After reading in a Cytoflour 4000 instrument (PE Biosystems), plates were rinsed with PBS and then used for FRET assay by the addition of 30 ul of the FRET peptide assay reagent described above (FRET Assay Preparation) per well. The plate was then placed into the Cytoflour 4000 instrument which had been set to 340 excite/490 emission, automatic mode for 20 cycles and the plate read in a kinetic mode. Typically, the signal to noise using an endpoint analysis after the reads was at least three-fold. Alternatively, after Alamar blue reading, plates were rinsed with PBS, 50 ul of DMEM (high glucose) without phenol red was added and plates were then used for luciferase assay using the Promega Dual-Glo Luciferase Assay System.
Compound analysis was determined by quantification of the relative HCV replicon inhibition and the relative cytotoxicity values. To calculate cytoxicity values, the average Alamar Blue fluorescence signals from the control wells were set as 100% non-toxic. The individual signals in each of the compound test wells were then divided by the average control signal and multiplied by 100% to determine […]. To calculate the HCV replicon inhibition values, an average background value was obtained from the two wells containing the highest amount of HCV protease inhibitor at the end of the assay period. These numbers were similar to those obtained from naïve Huh-7 cells.
The background numbers were then subtracted from the average signal obtained from the control wells and this number was used as 100% activity. The individual signals in each of the compound test wells were then divided by the averaged control values after background subtraction and multiplied by 100% to determine percent activity. EC50 values for a protease inhibitor titration were calculated as the concentration which caused a 50% reduction in FRET or luciferase activity. The two numbers generated for the compound plate, percent cytoxicity and percent activity were used to determine compounds of interest for further analysis.

[2] = molecular target: T1, HCV NS5B RdRp genotype 1b (Hepatitis C virus genotype 1b, UniProt Q9WMX2); test: HCV NS5B RdRp enzyme assay (standard / modified); assay type: biochemical; details: HCV NS5B genotype 1b
T1 construct: The protein was expressed with an 18 amino acid C-terminal truncation to enhance the solubility; made in house; host or cells: E. coli BL21(DE3), pET21a vector
Description: HCV NS5B RdRp cloning, expression, and purification. The cDNA encoding the NS5B protein of HCV, genotype 1b, was cloned into the pET21a expression vector. The protein was expressed with an 18 amino acid C-terminal truncation to enhance the solubility. The E. coli competent cell line BL21(DE3) was used for expression of the protein. Cultures were grown at 37° C. for ˜4 hours until the cultures reached an optical density of 2.0 at 600 nm. The cultures were cooled to 20° C. and induced with 1 mM IPTG. Fresh ampicillin was added to a final concentration of 50 μg/ml and the cells were grown overnight at 20° C.
Cell pellets (3 L) were lysed for purification to yield 15-24 mgs of purified NS5B. The lysis buffer consisted of 20 mM Tris-HCl, pH 7.4, 500 mM NaCl, 0.5% triton X-100, 1 mM DTT, 1 mM EDTA, 20% glycerol, 0.5 mg/ml lysozyme, 10 mM MgCl2, 15 ug/ml deoxyribonuclease I, and Complete™ protease inhibitor tablets (Roche). After addition of the lysis buffer, frozen cell pellets were resuspended using a tissue homogenizer. To reduce the viscosity of the sample, aliquots of the lysate were sonicated on ice using a microtip attached to a Branson sonicator. The sonicated lysate was centrifuged at 100,000×g for 1 hr at 4° C. and filtered through a 0.2 μm filter unit (Corning).
The protein was purified using three sequential chromatography steps: Heparin sepharose CL-6B, polyU sepharose 4B, and Hitrap SP sepharose (Pharmacia). The chromatography buffers were identical to the lysis buffer but contained no lysozyme, deoxyribonuclease I, MgCl2 or protease inhibitor and the NaCl concentration of the buffer was adjusted according to the requirements for charging the protein onto the column. Each column was eluted with a NaCl gradient which varied in length from 5-50 column volumes depending on the column type. After the final chromatography step, the resulting purity of the enzyme is >90% based on SDS-PAGE analysis. The enzyme was aliquoted and stored at −80° C.
Standard HCV NS5B RdRp enzyme assay. HCV RdRp genotype 1b assays were run in a final volume of 60 μl in 96 well plates (Costar 3912). The assay buffer is composed of 20 mM Hepes, pH 7.5, 2.5 mM KCl, 2.5 mM MgCl2, 1 mM DTT, 1.6 U RNAse inhibitor (Promega N2515), 0.1 mg/ml BSA (Promega R3961), and 2% glycerol. All compounds were serially diluted (3-fold) in DMSO and diluted further in water such that the final concentration of DMSO in the assay was 2%. HCV RdRp genotype 1b enzyme was used at a final concentration of 28 nM. A polyA template was used at 6 nM, and a biotinylated oligo-dT12 primer was used at 180 nM final concentration. Template was obtained commercially (Amersham 27-4110). Biotinylated primer was prepared by Sigma Genosys. 3H-UTP was used at 0.6 μCi (0.29 μM total UTP). Reactions were initiated by the addition of enzyme, incubated at 30° C. for 60 min, and stopped by adding 25 μl of 50 mM EDTA containing SPA beads (4 μg/μl, Amersham RPNQ 0007). Plates were read on a Packard Top Count NXT after >1 hr incubation at room temperature.
Modified HCV NS5B RdRp enzyme assay. A modified enzyme assay was performed essentially as described for the standard enzyme assay except for the following: The biotinylated oligo dT12 primer was precaptured on streptavidin-coated SPA beads by mixing primer and beads in assay buffer and incubating at room temperature for one hour. Unbound primer was removed after centrifugation. The primer-bound beads were resuspended in 20 mM Hepes buffer, pH 7.5 and used in the assay at final concentrations of 20 nM primer and 0.67 μg/μl beads. Order of addition in the assay: enzyme (14 nM) was added to diluted compound followed by the addition of a mixture of template (0.2 nM), 3H-UTP (0.6 μCi, 0.29 μM), and primer-bound beads, to initiate the reaction; concentrations given are final. Reactions were allowed to proceed for 4 hours at 30° C.
IC50 values for compounds were determined using seven different [I]. […]

T1 sequence (Q9WMX2 2420-2992): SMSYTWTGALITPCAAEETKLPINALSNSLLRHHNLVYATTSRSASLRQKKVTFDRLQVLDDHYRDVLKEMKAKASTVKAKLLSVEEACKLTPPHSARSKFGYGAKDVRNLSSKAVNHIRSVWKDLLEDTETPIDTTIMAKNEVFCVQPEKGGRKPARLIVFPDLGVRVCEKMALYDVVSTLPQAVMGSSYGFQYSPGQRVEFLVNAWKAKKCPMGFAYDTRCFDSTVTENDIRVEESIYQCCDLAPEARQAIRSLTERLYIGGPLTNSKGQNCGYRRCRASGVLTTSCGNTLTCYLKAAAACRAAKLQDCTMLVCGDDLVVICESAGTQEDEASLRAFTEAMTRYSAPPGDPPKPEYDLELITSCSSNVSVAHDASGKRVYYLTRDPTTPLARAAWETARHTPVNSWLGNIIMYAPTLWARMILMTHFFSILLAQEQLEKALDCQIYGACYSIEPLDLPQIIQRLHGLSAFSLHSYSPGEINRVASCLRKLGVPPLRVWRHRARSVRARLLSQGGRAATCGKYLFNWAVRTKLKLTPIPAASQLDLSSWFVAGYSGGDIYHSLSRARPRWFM

SMILES | EC50 ([1]; Table 2) [nM] | IC50 ([2]; Table 2) [nM] | EC50 ([1]; Table 1) [nM] | IC50 ([2]; Table 1) [nM]
CNC(=O)c1c(-c2ccc(F)cc2)nc2ccc(-c3cccc(C(=O)NC(C)(C)C)c3)cn12 [drawing 180] | 400 | 640 |  | 
CNC(=O)c1c(-c2ccc(F)cc2)nc2cc(C)c(-c3cc(C(=O)NC(C)(C)c4ccccc4)ccc3C)cn12 |  |  | 2 to 250 | 2 to 250
CNC(=O)c1c(-c2ccc(F)cc2)nn2cc(N(CCO)S(C)(=O)=O)c(OC)cc12 [drawing 50] |  |  | 1000 to 10000 | 1000 to 10000
CNC(=O)c1c(-c2ccc(F)cc2)nn2c(F)cc(-c3cc(C(=O)NC4(c5ccccc5)CC4)ccc3C)cc12 |  |  | 2 to 250 | 2 to 250
CNC(=O)c1c(-c2ccc(F)cc2)nn2cc(NC(=O)C(C)(C)C)c(C3CC3)cc12 |  |  | > 10000 | > 10000
CNC(=O)c1c(-c2ccc(F)cc2)nc2ccc(-c3ccc(-c4ccccc4)c(C(=O)NCC(C)C)c3)cn12 |  |  | 250 to 1000 | > 500
CNC(=O)c1c(-c2ccc(F)cc2)nn2cc(N(CCO)S(C)(=O)=O)c(-c3cccc(C(=O)NC4(c5ccccn5)CC4)c3)cc12 [drawing 86] |  |  | 1000 to 10000 | 2 to 250
CNC(=O)c1c(-c2ccc(F)cc2)sc2ccc(-c3cccc(C(=O)NC4(c5ccccc5)CCC4)c3)cc12 |  |  | 2 to 250 | 2 to 250
CNC(=O)c1c2cc(-c3cc(C(=O)NC(C)(C)c4ccccc4)ccc3Cl)ccc2nn1-c1ccc(F)cc1 |  |  | 2 to 250 | 2 to 250
CNC(=O)c1c(-c2ccc(F)cc2)nn2ccc(-c3cc(C(=O)NC4(c5ncccn5)CC4)ccc3C)c(F)c12 |  |  | 2 to 250 | 2 to 250
CNC(=O)c1c(-c2ccc(F)cc2)nc2ccc(-c3cccc(C(=O)NC(C)(C)C)c3)cn12 [drawing 77] |  |  | 250 to 1000 | 250 to 1000
CNC(=O)c1c(-c2ccc(F)cc2)nn2cc(NC(=O)C(F)(F)F)ccc12 |  |  | > 10000 | > 10000
CNC(=O)c1c(-c2ccc(F)cc2)nn2ccc(NS(=O)(=O)c3ccc(OC(F)(F)F)cc3)cc12 |  |  | > 10000 | > 10000
CNC(=O)c1c(-c2ccccc2)nn2cc(-c3ccccc3CO)ccc12 |  |  | > 10000 | > 10000
CNC(=O)c1c(-c2ccc(F)cc2)sc2ccc(-c3cccc(C(=O)NC4(c5ccccc5)CC4)c3)cc12 |  |  | 1000 to 10000 | 250 to 1000
CCOc1ccccc1-c1ccc2c(C(=O)NC)c(-c3ccc(F)cc3)nn2c1 |  |  | > 10000 | > 10000
CNC(=O)c1c(-c2ccc(F)cc2)sc2ccc(-c3cccc(C(=O)NC(C)(C)C)c3)cc12 [drawing 85] |  |  | 1000 to 10000 | > 4170
CNC(=O)c1c(-c2ccc(F)cc2)oc2ccc(-c3cccc(C(=O)NC4(c5ccccn5)CC4)c3)nc12 |  |  | 250 to 1000 | 1000 to 10000
